Reference: patent publication US12480948B2, “Ratiometric fluorescent probe for detecting aminopeptidase N, and preparation method and use thereof” (Jilin University, priority 2022, dated 2025)
Blank lines part the entries; values can stand above or below the molecule they belong to.

How the values were obtained:
[1] = tested on: APN in HepG2 cells; assay: APAP-induced hepatotoxicity and hepatoprotective drugs in HepG2 cells, imaged with NB-APN; type: cell-based, human; settings: for effect on the red fluorescence of HepG2 cells: drug 300 μM + APAP 1,000 μM + NB-APN 5 μM
Excerpt: It has been reported that the excessive use of antipyretic analgesic acetaminophen (APAP) can cause drug-induced liver injury, during which process an APN concentration increases. The present disclosure also evaluates the performance of NB-APN in monitoring APN changes during APAP-induced acute hepatotoxicity and a drug treatment thereof. The NB-APN was used to evaluate the production of APN in APAP-stimulated cells. […] Furthermore, the NB-APN was used to study a relationship between the hepatotoxicity therapy and the APN level in living cells. Four drugs (NAC, GSH, TIO, and Glu) were investigated as anti-DILI hepatoprotective agents. […] This may be because the intake of GSH helps to improve the detoxification ability of the liver and reduce the damage of APAP to the liver. In addition, the western blot result was also consistent with the result of fluorescent imaging.

[2] = biological target: APN (Homo sapiens, UniProt P15144); assay: Inhibitor experiments with bestatin in the NB-APN + APN system; type: biochemical; settings: bestatin 1 μM and 10 μM, APN 25 ng/mL, NB-APN 10 μM, 37° C., pH 7.4, 20 min
Sequence of APN (P15144 whole entry, species assumed): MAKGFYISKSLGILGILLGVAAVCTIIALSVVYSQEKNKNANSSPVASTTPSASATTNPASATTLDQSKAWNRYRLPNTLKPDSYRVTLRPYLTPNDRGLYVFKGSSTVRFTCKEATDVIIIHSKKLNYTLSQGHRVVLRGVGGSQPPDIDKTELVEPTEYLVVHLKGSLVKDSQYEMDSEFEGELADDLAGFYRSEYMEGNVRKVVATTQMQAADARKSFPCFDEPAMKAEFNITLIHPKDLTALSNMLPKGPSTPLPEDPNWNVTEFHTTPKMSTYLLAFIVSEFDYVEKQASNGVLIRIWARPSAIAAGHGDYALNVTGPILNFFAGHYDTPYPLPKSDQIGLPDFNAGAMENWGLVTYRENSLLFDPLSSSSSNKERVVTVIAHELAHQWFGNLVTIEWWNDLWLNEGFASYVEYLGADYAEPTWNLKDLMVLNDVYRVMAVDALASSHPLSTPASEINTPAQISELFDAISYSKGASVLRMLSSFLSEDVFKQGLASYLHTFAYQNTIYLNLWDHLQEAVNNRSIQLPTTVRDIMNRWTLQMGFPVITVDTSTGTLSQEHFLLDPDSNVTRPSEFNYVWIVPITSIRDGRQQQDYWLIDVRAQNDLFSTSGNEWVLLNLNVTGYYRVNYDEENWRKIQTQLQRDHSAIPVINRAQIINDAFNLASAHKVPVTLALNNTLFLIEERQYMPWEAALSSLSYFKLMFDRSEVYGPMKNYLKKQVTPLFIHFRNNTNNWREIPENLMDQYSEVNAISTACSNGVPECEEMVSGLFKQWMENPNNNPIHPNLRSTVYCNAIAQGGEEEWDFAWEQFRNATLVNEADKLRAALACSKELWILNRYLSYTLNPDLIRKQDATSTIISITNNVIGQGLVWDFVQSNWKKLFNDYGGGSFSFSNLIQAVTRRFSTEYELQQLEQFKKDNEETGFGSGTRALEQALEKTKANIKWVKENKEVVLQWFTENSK
Description: Inhibitor experiments: a: NB-APN (10 μM); b: system (a)+APN (25 ng/mL); c: system (b)+bestatin (1 μM); and d: system (b)+bestatin (10 μM).
The influence of different concentrations of bestatin on the fluorescence ratio I675/I610 of 10 μM NB-APN (green) or 10 μM NB (red) was investigated, with λex=560 nm, 37° C., pH 7.4, 20 min.

[3] = biological target: T1, APN in liver cancer cells HepG2 (Homo sapiens, UniProt P15144); assay: Confocal ratiometric cell imaging of APN, HepG2; type: cell-based; settings: HepG2, bestatin 100 μM pre-treatment 1 h, NB-APN 5 μM 30 min
T1 construct: after acting on HepG2 cells, indicating the existence of intrinsic APN; endogenous in cells; host or cells: HepG2
T1 sequence (P15144 whole entry): as the sequence (P15144 whole entry, species assumed) above
Description: (§1) The probe NB-APN was used for the imaging analysis of APN in liver cancer cells HepG2 and normal hepatocytes LO2. A confocal fluorescence microscope was adopted, and an excitation light source with a wavelength of 559 nm was adopted. The light emitted from a yellow channel (580 nm to 620 nm) and a red channel (660 nm to 700 nm) was collected. The HepG2 cells and LO2 cells were each pre-treated with bestatin (100 μM) for 1 h and then incubated with NB-APN (5 μM) for 30 min.

[4] = biological target: T2, APN in normal hepatocytes LO2 (Homo sapiens, UniProt P15144); assay: Confocal ratiometric cell imaging of APN, LO2; type: cell-based; settings: LO2, bestatin 100 μM pre-treatment 1 h, NB-APN 5 μM 30 min
T2 construct: endogenous in cells; host or cells: LO2
T2 sequence (P15144 whole entry): as the sequence (P15144 whole entry, species assumed) above
Description: as §1

[5] = biological target: T3, APN in transplanted tumor (Homo sapiens, UniProt P15144); assay: In vivo fluorescent imaging of HepG2 tumor-transplanted nude mice; set-up: species or system nude mouse; settings: 50 μL bestatin (100 μM) pre-injected 1 h before NB-APN
T3 construct: from tissue; host or cells: HepG2 xenograft tumour in nude mouse
T3 sequence (P15144 whole entry): as the sequence (P15144 whole entry, species assumed) above
Description: Transplanted tumors from two nude mice were respectively pre-injected with 50 μL of PBS (control) and bestatin (100 μM), and 1 h later, 50 μL of NB-APN (50 μM) was intratumorally injected. Imaging was conducted at different time points (0 h, 0.25 h, 0.5 h, 1.0 h, 2.0 h, and 4.0 h) after the NB-APN injection.
The intratumoral injection was adopted to study tumor imaging in a nude mouse liver cancer model under the red luminescence channel, and results are shown in FIG. 12. The fluorescence background of the nude mouse before the probe injection was very low. […] It can be considered accordingly that the fluorescence signal in a tumor is caused by the enzymatic activity of APN and thus the probe NB-APN can detect APN at a living organism level.

[6] = biological target: T4, APN in liver (Mus musculus, UniProt P97449); assay: In vivo imaging of APN activity in nude mice with DILI; set-up: species or system nude mouse; settings: 300 mg/kg APAP intraperitoneal, 12 h after NB-APN tail vein injection
T4 construct: from tissue; host or cells: liver of nude mice, in vivo
T4 sequence (P97449 1-966): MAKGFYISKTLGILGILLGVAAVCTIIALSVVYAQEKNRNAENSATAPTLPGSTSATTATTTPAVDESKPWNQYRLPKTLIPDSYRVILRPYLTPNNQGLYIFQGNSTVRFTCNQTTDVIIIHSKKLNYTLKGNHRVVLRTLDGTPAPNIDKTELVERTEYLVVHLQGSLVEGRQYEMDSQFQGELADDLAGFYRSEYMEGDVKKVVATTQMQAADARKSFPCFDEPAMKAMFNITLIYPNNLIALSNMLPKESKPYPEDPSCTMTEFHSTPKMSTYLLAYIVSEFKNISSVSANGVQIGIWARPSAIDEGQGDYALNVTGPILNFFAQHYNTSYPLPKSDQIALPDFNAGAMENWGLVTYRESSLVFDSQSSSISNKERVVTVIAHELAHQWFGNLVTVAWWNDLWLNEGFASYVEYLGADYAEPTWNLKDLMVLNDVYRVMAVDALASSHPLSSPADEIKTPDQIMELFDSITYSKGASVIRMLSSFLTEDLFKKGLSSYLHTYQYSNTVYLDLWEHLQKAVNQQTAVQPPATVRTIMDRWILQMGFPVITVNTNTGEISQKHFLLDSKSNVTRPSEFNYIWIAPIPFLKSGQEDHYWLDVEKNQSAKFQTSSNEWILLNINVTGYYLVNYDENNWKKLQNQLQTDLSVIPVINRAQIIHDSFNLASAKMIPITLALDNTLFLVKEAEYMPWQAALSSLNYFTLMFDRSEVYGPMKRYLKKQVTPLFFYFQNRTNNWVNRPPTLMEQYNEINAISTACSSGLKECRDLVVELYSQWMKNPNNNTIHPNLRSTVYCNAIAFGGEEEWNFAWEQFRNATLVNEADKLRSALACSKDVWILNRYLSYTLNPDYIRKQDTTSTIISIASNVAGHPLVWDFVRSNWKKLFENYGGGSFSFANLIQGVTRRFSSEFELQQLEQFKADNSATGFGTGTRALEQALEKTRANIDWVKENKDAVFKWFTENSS
Description: The NB-APN was used to image the activity of APN in nude mice with DILI. Nude mice were intraperitoneally pre-injected with pH 7.4 PBS (control), and then injected with NB-APN through the tail vein. The background fluorescence signal of the nude mice was extremely low 6 h and 12 h after the NB-APN injection. […] In addition, the nude mouse with DILI was sacrificed, and the main organs (heart, liver, spleen, lung, and kidney) and the tumor were collected for imaging after 3 h of NB-APN pretreatment.

SMILES: N[C@@H](CCC(=O)N[C@@H](CS)C(=O)NCC(=O)O)C(=O)O [GSH, glutathione]
anti-hepatotoxic effect with APN as hepatotoxicity index, compared ([1]; drug 300 μM + APAP 1,000 μM): better than that of NAC and Glu, but worse than that of TIO | effect on the red fluorescence of HepG2 cells [1]: obvious inhibitory effect

effect on the fluorescence ratio signal I675/I610 of the NB-APN + APN system [2]: significant inhibitory effect | effect on intracellular fluorescence ratio R [3]: significantly reduced | effect on intracellular fluorescence ratio R [4]: significantly reduced | fluorescence signal at the tumor site compared with the group without inhibitor [5]: significantly weaker
SMILES: CC(C)C[C@H](NC(=O)[C@@H](O)[C@H](N)Cc1ccccc1)C(=O)O [bestatin]

SMILES: CC(=O)Nc1ccc(O)cc1 [APAP, acetaminophen]
change of R value (APN level) with APAP concentration ([1]; HepG2, APAP 500 μM and 1,000 μM, NB-APN 5 μM): gradual increase in the R value | liver fluorescence (APN expression) in nude mice [6]: strong fluorescence appeared in the liver

SMILES: CC(S)C(=O)NCC(=O)O (stereo not shown) [TIO]
effect on the red fluorescence of HepG2 cells [1]: obvious inhibitory effect

SMILES: CC(=O)N[C@@H](CS)C(=O)O [NAC]
effect on the red fluorescence of HepG2 cells [1]: obvious inhibitory effect
